The structures appear in SMILES notation. Read-outs that look alike come from different tables or passages of the source.

The values that follow come from patent US11286268B1, “EIF4E-inhibiting compounds and methods” (EFFECTOR THERAPEUTICS, INC., priority 2019, dated 2022).

In this experiment the target is recombinant eIF4E (Homo sapiens (Human), UniProt P06730). The experiment in a line: Fluorescence polarization competition assay for eIF4E binding potency. The method in brief: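 Protein and fluorescent cap-analog probe (EDA-m7GDP-ATTO-550) were mixed first for 5 min, after which serially diluted compound was added to final 75 nM eIF4E, 20 nM probe, 1% DMSO. Reactions equilibrated 30 min at room temperature before polarization was measured.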
Sequence of recombinant eIF4E (P06730 whole entry): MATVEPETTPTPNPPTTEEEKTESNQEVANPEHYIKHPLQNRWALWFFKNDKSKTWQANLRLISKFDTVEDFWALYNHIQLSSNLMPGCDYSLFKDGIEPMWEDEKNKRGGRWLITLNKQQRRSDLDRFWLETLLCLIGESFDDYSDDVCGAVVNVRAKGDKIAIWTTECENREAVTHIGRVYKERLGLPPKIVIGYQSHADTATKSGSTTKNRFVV
In general terms: Polarisation of emitted light reports the rotation of a fluorescent probe.

The mark [1] stands for this setting: fluorescence polarization competition, 75 nM recombinant eIF4E, 20 nM EDA-m7GDP-ATTO-550, IC50 class, read-out: elF4E FP.
[2] abbreviates: inhibition of eIF4E/EDA-m7GDP-ATTO-550 binding, calculated IC50 values, Table 4B, read-out: IC50.
Setting [3] is: inhibition of eIF4E/EDA-m7GDP-ATTO-550 binding by 50%, Table 4B calculated values, read-out: IC50.

On to `COC1CCN(c2ncc3nc(C)n(CCOc4ccc(Cl)cc4-c4cc(C)nc5c(C(=O)O)csc45)c(=O)c3c2C#N)C1` (stereo not shown) [compound 1234], for which the IC50 under setting [1] is less than 50 nM and the IC50 under setting [2] was 30.2 nM.

In the case of `Cc1cc(-c2cc(Cl)ccc2OCCn2c(C)nc3cc(C(F)(F)F)c(-c4ccccc4C(N)=O)nc3c2=O)c2scc(C(=O)O)c2n1` [345b], under setting [3], the IC50 was 25.3 nM. Consider `Cc1cc(-c2cc(Cl)ccc2OCCn2c(C)nc3cc(Cl)c(-c4cccc(C(F)F)n4)c(C#N)c3c2=O)c2scc(C(=O)O)c2n1` [compound 758], for which the IC50 is, setting by setting: under setting [1], less than 50 nM; under setting [3], 13.1 nM. Take `Cc1sc2c(-c3cc(Cl)ccc3OCCn3c(C)nc4cc(C(F)(F)F)c(N5CCN(C)CC5)c(C#N)c4c3=O)ccnc2c1C` [compound 1252]: under setting [2], the IC50 is 222 nM. For the compound `Cc1cc(-c2cc(Cl)ccc2OCCn2c(C)nc3c(C)ncc(C#N)c3c2=O)c2scc(C(=O)O)c2n1` [compound 673], the IC50 under setting [1] is less than 50 nM and the IC50 under setting [3] is 25.3 nM. Turning to `Cc1cc(-c2cc(Cl)ccc2OCCn2c(C)nc3cnc(N(C)N(C)C)c(C#N)c3c2=O)c2scc(C(=O)O)c2n1` [compound 978], the IC50 is, setting by setting: under setting [1], less than 50 nM; under setting [3], 20.7 nM.

For the compound `Cc1nc2cc(C(F)(F)F)cc(C#N)c2c(=O)n1CCOc1ccncc1-c1ccnc2c(C(=O)O)csc12` [compound 285], the IC50 is 50 to 1000 nM under setting [1] and 72.5 nM under setting [3]. For `C=C1c2c(C#N)cc(C(F)(F)F)cc2N=C(C)N1CCOc1ccc(Cl)cc1-c1cc(CCO)nc2c(C(=O)O)csc12` [compound 595], in that order: less than 50 nM and 24.8 nM.

With `Cc1cc(-c2cc(Cl)ccc2OCCn2c(C)nc3cc(Cl)c(N4CCN(C(C)(C)C)CC4)c(C#N)c3c2=O)c2sc(C)c(C(=O)O)c2n1` [compound 1201], the IC50 under setting [1] is less than 50 nM and the IC50 under setting [2] was 22.8 nM. Turning to `Cc1nc2c(F)cc(C(F)F)c(C#N)c2c(=O)n1CCOc1ccc(Cl)cc1-c1ccnc2c(C(=O)O)csc12` [compound 1944], the IC50 under setting [2] was 24.9 nM.

`Cc1nc2cnc(N(C)C3CCN(C4CC(F)(F)C4)CC3)c(C#N)c2c(=O)n1CC#Cc1ccc(Cl)cc1-c1ccnc2c(C(=O)NS(=O)(=O)c3ccncc3)csc12` [compound 1111]: the IC50 is less than 50 nM under setting [1] and 5.71 nM under setting [3].

`CCN(c1ncc2nc(C)n(CC#Cc3ccc(Cl)cc3-c3ccnc4c(C(=O)O)csc34)c(=O)c2c1C#N)C1CCN(CC(F)F)CC1` [compound 1535]: the IC50 under setting [2] was 17.4 nM. In the case of `CC#Cc1nc2c(=O)n(CCOc3ccc(Cl)cc3-c3cc(C)nc4c(C(=O)O)csc34)c(C)nc2cc1C(F)(F)F` [compound 784], the IC50 by setting is: under setting [1], less than 50 nM; under setting [3], 13.7 nM. For `CCC(F)(F)CN1CCC(N(C)c2ncc3nc(C)n(COCc4ccc(Cl)cc4-c4ccnc5c(C(=O)O)csc45)c(=O)c3c2C#N)CC1` [compound 1168], in that order: less than 50 nM and 13 nM. Consider `Cc1nc2cnc(N(C)C3CCN(C4CC(F)(F)C4)CC3)c(C#N)c2c(=O)n1CC#Cc1ccc(Cl)cc1-c1ccnc2c(C(=O)NS(=O)(=O)C3CC3)csc12` [compound 1809], for which the IC50 under setting [2] is 7.57 nM. With `Cc1c(C(=O)O)ccnc1-c1cc(Cl)ccc1OCCn1cnc2cnc(C#N)cc2c1=O` [compound 115], the IC50 is, setting by setting: under setting [1], more than 1000 nM; under setting [3], more than 3000 nM. In the case of `Cc1nc2cnc(N3CCN(CCCOC(F)F)CC3)c(C#N)c2c(=O)n1CC#Cc1ccc(Cl)cc1-c1ccnc2c(C(=O)O)csc12` [compound 1509], under setting [2], the IC50 was 37.5 nM. As for `Cc1cc(-c2cc(Cl)ccc2OCCn2c(C)nc3c(C)nc(-c4cc(F)ccc4Cl)c(C#N)c3c2=O)c2scc(C(=O)O)c2n1` [compound 999], the IC50 runs as follows: under setting [1], less than 50 nM; under setting [3], 16.3 nM. In the case of `Cc1cccc(-c2nc(C)c3nc(C)n(CCOc4ccc(Cl)cc4-c4cc(C)nc5c(C(=O)O)csc45)c(=O)c3c2C#N)c1` [compound 478], under setting [1], the IC50 was less than 50 nM. As to `Cc1nc2cc(C(F)(F)F)c(CN3CCC(F)(F)CC3)c(C#N)c2c(=O)n1CCOc1ccc(Cl)cc1-c1ccnc2c(C(=O)O)csc12` [compound 522], the IC50 is, setting by setting: under setting [1], less than 50 nM; under setting [3], 22.7 nM.

Regarding `O=C(O)c1cccc(-c2cc(Cl)ccc2OCCn2cnc3cnc(Sc4ccccc4)cc3c2=O)c1` [compound 26], the IC50 under setting [1] fell in the range of 50 to 1000 nM and the IC50 under setting [3] was 919 nM.

For the compound `Cc1cc(-c2cc(Cl)ccc2OCCn2c(C)nc3cc(C)c(CN(C)C)c(C#N)c3c2=O)c2scc(C(=O)O)c2n1` [compound 1379], under setting [2], the IC50 was 18 nM. Still for that read-out and setting: as for `CCc1cc(-c2cc(Cl)ccc2OCCn2c(C)nc3cc(C(F)(F)F)c(N4CC5(C4)CN(C4CC4)C5)c(C#N)c3c2=O)c2scc(C(=O)O)c2n1` [compound 1931], the figure is 19.7 nM; as for `Cc1cc(-c2cc(Cl)ccc2OCCn2c(C)nc3c(C#N)nc(C4CC4)c(C)c3c2=O)c2scc(C(=O)O)c2n1` [compound 1964], 49.8 nM. Same read-out and setting: as for `Cc1nc2cnc(C#CCN(C)CCF)c(C#N)c2c(=O)n1CCOc1ccc(Cl)cc1-c1ccnc2c(C(=O)O)csc12` [compound 1326], the figure is 12.8 nM; as for `CCN(c1ncc2nc(C)n(CC#Cc3ccc(Cl)cc3-c3ccnc4c(C(=O)NS(=O)(=O)C(F)(F)F)csc34)c(=O)c2c1C#N)C1CCN(C2COC2)CC1` [compound 1744], 11.5 nM; as for `Cc1nc2cnc(N3CC4CC3CN4C)c(C#N)c2c(=O)n1CCOc1ccc(Cl)cc1-c1ccnc2c(C(=O)O)csc12` (stereo not shown) [compound 1645], 23.2 nM. Consider `Cc1nc2cc(C(F)(F)F)cc(C#N)c2c(=O)n1CCOc1ccc(Cl)cc1-c1ccnc2c(O)csc12` [compound 663], for which the IC50 under setting [1] was in the range of 50 to 1000 nM and the IC50 under setting [3] was 332 nM.

For `Cc1nc2cnc(N3CC4(CNC4)C3)c(C#N)c2c(=O)n1CC#Cc1ccc(Cl)cc1-c1ccnc2c(C(=O)O)csc12` [compound 1633], the IC50 under setting [2] is 52.6 nM. As to `Cc1cc(-c2cc(Cl)ccc2OCCn2c(C)nc3cc(C(F)(F)F)c(-c4ccccc4C#N)nc3c2=O)c2scc(C(=O)O)c2n1` [345a], the IC50 under setting [3] is 43.2 nM. For the compound `Cc1nc2cnc(N(C)C3CCN(CC(F)(F)F)CC3)c(C#N)c2c(=O)n1CC#Cc1ccc(Cl)cc1-c1ccnc2c(C(N)=O)csc12` [compound 1594], the IC50 under setting [2] is 442 nM. In the case of `Cc1nc2cc(C(F)(F)F)c(N3CCN(c4cccnc4)CC3)c(C#N)c2c(=O)n1CCOc1ccc(Cl)cc1-c1cccc(C(=O)O)c1` [compound 380], the IC50 runs as follows: under setting [1], less than 50 nM; under setting [3], 29.7 nM. Take `Cc1cc(-c2cc(Cl)ccc2OCCn2c(C)nc3cc(C(F)(F)F)cc(O)c3c2=O)c2scc(C(=O)O)c2n1` [351a]: the IC50 under setting [3] was 885 nM. In the case of `Cc1cc(-c2cc(Cl)ccc2OCCn2c(C)nc3cc(C(F)(F)F)cc(C#N)c3c2=O)c2csc(C(=O)O)c2n1` [compound 447], the IC50 under setting [1] lay in the range of 50 to 1000 nM and the IC50 under setting [3] is 84.8 nM. The matching figures for `Cc1cc(-c2cc(Cl)ccc2OCCn2c(C)nc3cc(C(F)(F)F)c(-c4nccnc4C)nc3c2=O)c2scc(C(=O)O)c2n1` [compound 1019]: less than 50 nM and 30.8 nM. Consider `CCc1cc(-c2cc(Cl)ccc2OCCn2c(C)nc3cc(C(F)(F)F)c(N4CCN(C)CC4)c(C#N)c3c2=O)cc(C(=O)O)n1` [compound 1223], for which the IC50 under setting [1] is less than 50 nM and the IC50 under setting [2] is 2.79 nM. `Cc1nc2cc(CCN(C)C)cc(C#N)c2c(=O)n1CCOc1ccc(Cl)cc1-c1ccnc2c(C(=O)O)csc12` [compound 513]: the IC50 is, setting by setting: under setting [1], less than 50 nM; under setting [3], 11.6 nM. Consider `Cc1nc2cc(C(F)(F)F)c(N3CCC4(CC3)CN(CC(F)F)C4)c(C#N)c2c(=O)n1CCOc1ccc(Cl)cc1-c1ccnc2c(C(=O)NS(C)(=O)=O)csc12` [compound 1913], for which, under setting [2], the IC50 was 22.9 nM. On the same count and under the same terms, to `Cc1nc2cnc(Nc3ccccc3)cc2c(=O)n1CCOc1ccc(Cl)cc1-c1cccc(C(=O)O)c1` [compound 2004] belongs 639 nM.

For the compound `Cc1cc(-c2cc(Cl)ccc2OCCn2c(C)nc3cc(Cl)c(-c4cncc(F)c4)c(C#N)c3c2=O)c2scc(C(=O)O)c2n1` [compound 394], the IC50 was less than 50 nM under setting [1] and 21.8 nM under setting [3].

For the compound `Cc1nc2cc(Cl)c(S(C)(=O)=O)c(C#N)c2c(=O)n1CCOc1ccc(Cl)cc1-c1ccnc2c(C(=O)O)csc12` [compound 493], the IC50 is, setting by setting: under setting [1], 50 to 1000 nM; under setting [3], 94.2 nM. For `Cc1cc(-c2cc(Cl)ccc2OCCn2c(C)nc3cc(C(F)(F)F)c(-c4nn(C)cc4C)c(C#N)c3c2=O)c2scc(C(=O)O)c2n1` [compound 1027], in that order: less than 50 nM and 31.5 nM. On to `Cc1nc2cc(C(F)(F)F)c(N3CCN(C4COC4)CC3)c(C#N)c2c(=O)n1CCOc1ccc(Cl)cc1-c1ccnc2c(C(=O)O)csc12` [compound 1241], for which the IC50 reads like this: under setting [1], less than 50 nM; under setting [2], 17.3 nM. As for `Cc1nc2cc(CN(C)C)c(OC(F)F)c(C#N)c2c(=O)n1CCOc1ccc(Cl)cc1-c1cccc(C(=O)O)c1` [compound 806], the IC50 runs as follows: under setting [1], less than 50 nM; under setting [3], 3.58 nM. The matching figures for `Cc1cc(-c2cc(Cl)ccc2OCCn2c(C)nc3cc(C(F)(F)F)c(CN(C)C)c(C#N)c3c2=O)c2scc(C(=O)O)c2n1` [compound 559]: less than 50 nM and 8.69 nM.

`Cc1nc2cnc(N(C)C3CCN(CC(F)(F)F)CC3)c(C#N)c2c(=O)n1CC#Cc1ccc(Cl)cc1-c1ccnc2c(C(=O)NS(=O)(=O)CCC#N)csc12` [compound 1671]: the IC50 under setting [2] was 4.14 nM. In the case of `Cc1nc2cnc(N(C)C3CCN(CC(C)(C)F)CC3)c(C#N)c2c(=O)n1CCOc1ccc(Cl)cc1-c1ccnc2c(C(=O)O)csc12` [compound 1655], the IC50 under setting [2] was 13.4 nM.
